Source: ChEMBL document CHEMBL5346964, “Discovery of LNP1892: A Precision Calcimimetic for the Treatment of Secondary Hyperparathyroidism” (J Med Chem, 2023)

Key:
[1] = molecular target: T1, Extracellular calcium-sensing receptor (Homo sapiens, UniProt P41180); test: Agonist activity at human CaSR expresssed in HEK293 cells in presence of glucose by Fluo4NW dye based FLIPR assay; type: functional, cell-based
T1 sequence (P41180 whole entry): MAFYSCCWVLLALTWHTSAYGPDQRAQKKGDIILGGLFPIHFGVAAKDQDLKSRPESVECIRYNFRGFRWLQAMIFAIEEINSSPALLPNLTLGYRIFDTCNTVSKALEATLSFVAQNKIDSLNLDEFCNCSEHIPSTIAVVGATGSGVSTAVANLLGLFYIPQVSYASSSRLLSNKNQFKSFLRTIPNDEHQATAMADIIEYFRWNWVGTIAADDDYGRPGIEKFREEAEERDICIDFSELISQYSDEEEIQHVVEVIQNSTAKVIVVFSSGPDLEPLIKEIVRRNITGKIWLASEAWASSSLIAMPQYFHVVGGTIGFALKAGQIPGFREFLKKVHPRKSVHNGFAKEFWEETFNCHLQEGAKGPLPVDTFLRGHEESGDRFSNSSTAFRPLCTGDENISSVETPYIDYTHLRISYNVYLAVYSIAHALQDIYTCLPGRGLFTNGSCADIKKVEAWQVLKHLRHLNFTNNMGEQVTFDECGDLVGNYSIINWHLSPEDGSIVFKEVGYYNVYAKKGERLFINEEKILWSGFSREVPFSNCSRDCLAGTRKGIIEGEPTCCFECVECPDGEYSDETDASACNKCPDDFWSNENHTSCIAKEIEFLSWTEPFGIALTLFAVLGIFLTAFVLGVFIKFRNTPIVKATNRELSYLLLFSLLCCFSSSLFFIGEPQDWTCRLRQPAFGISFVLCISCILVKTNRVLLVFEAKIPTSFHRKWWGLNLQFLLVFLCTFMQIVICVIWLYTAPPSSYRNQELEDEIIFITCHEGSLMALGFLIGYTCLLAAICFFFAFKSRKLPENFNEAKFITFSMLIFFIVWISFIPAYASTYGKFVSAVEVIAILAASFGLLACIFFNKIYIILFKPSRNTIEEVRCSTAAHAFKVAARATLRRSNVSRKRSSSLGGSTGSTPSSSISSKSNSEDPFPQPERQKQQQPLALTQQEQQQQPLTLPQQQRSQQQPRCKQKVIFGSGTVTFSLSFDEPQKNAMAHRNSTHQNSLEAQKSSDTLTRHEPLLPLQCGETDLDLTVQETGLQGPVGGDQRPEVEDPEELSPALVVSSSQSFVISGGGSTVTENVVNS

[2] = Microsomal stability in rat liver microsomes assessed as parent compound remaining at 1 uM measured upto 30 mins in presence of NADPH by LC-MS/MS analysis; type: ADME, Microsome; conditions: read-out: Stability
CYP2D6 [3] = molecular target: T2, CYP2D6 (Homo sapiens, UniProt P10635); test: Inhibition of CYP2D6 in human liver microsomes at 1 uM preincubated for 5 mins followed by NADPH addition by LC-MS/MS analysis relative to control; type: ADME, Microsome
T2 sequence (P10635 whole entry): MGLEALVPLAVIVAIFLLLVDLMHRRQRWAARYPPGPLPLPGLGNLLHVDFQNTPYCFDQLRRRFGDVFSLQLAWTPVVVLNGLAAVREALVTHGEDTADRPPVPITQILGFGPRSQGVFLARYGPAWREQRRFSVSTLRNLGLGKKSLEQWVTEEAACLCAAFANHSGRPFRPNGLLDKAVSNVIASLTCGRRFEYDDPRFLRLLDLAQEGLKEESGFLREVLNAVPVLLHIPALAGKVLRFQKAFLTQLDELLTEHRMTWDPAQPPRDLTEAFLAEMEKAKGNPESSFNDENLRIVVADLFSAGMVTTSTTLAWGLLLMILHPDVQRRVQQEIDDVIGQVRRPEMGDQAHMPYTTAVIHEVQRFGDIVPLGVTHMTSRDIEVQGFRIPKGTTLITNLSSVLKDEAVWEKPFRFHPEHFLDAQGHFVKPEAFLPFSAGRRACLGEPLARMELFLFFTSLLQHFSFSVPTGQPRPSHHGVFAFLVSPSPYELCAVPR

CYP2D6 [4] = molecular target: T2, CYP2D6; test: Inhibition of CYP2D6 in human liver microsomes at 10 uM preincubated for 5 mins followed by NADPH addition by LC-MS/MS analysis relative to control; type: ADME, Microsome
[5] = Microsomal stability in human liver microsomes assessed as parent compound remaining at 1 uM measured upto 30 mins in presence of NADPH by LC-MS/MS analysis; type: ADME, Microsome; conditions: for remaining at 0.5 h, 1 µM: liver microsomes, read-out: Stability; for Stability: microsomes, 0.5 h, 1 µM
hERG [6] = molecular target: T3, hERG (Homo sapiens, UniProt Q12809); test: (§1) Inhibition of hERG at 1 uM relative to control; type: toxicity
T3 sequence (Q12809 whole entry): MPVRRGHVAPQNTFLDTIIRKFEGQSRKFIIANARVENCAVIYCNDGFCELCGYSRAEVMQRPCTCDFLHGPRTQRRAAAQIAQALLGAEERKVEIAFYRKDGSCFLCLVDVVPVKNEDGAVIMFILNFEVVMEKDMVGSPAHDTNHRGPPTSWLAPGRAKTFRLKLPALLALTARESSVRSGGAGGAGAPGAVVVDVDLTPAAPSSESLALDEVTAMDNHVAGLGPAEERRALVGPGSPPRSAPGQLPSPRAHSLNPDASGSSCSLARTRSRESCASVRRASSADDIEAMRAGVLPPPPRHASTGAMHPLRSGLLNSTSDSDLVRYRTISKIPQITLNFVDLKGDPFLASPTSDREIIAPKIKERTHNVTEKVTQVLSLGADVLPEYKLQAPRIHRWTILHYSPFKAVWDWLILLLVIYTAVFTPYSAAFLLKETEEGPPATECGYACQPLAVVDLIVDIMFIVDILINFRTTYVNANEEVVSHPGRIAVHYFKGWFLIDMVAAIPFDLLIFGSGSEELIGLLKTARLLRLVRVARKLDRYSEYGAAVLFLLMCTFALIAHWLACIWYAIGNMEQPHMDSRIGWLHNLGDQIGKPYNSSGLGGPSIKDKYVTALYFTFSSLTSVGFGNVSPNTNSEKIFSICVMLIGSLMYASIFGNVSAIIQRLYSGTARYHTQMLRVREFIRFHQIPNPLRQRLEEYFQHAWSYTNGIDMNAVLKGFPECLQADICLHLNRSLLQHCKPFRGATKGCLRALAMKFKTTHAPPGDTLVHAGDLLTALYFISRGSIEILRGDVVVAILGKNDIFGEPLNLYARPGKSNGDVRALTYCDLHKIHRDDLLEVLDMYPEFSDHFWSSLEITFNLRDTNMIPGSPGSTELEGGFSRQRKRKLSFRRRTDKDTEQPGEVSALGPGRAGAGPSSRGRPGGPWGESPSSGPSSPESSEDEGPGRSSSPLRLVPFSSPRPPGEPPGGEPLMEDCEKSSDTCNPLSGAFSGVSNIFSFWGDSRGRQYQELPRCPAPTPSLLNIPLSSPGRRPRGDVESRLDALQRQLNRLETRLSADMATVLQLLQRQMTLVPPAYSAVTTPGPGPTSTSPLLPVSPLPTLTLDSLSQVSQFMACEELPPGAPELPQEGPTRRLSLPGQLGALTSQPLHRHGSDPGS

hERG [7] = molecular target: T3, hERG; test: (§2) Inhibition of hERG at 10 uM relative to control; type: toxicity
[8] = molecular target: T4, Voltage-gated inwardly rectifying potassium channel KCNH2 (Homo sapiens, UniProt Q12809); test: as §1; type: toxicity; conditions: 1 µM
T4 sequence (Q12809 whole entry): as above

[9] = molecular target: T4, Voltage-gated inwardly rectifying potassium channel KCNH2; test: as §2; type: toxicity; conditions: 10 µM
Rattus norvegicus = test: Effect on parathyroid hormone in po dosed overnight fasted Sprague-Dawley rat assessed as reduction in plasma PTH level measured after 0.5 to 6 hrs of post treatment by sandwich ELISA analysis; type: functional, organism-based; conditions: dose 3-30 mg/kg, time 0.5-6 hrs

Row | Structure (SMILES) | EC50 ([1]; read-out: EC50) [nM] | remaining at 0.5 h, 1 µM [2] [%] | inhibition at 1 µM (CYP2D6 [3]) [%] | inhibition at 10 µM (CYP2D6 [4]) [%] | remaining at 0.5 h, 1 µM [5] [%] | inhibition at 1 µM (hERG [6]) [%] | inhibition at 10 µM (hERG [7]) [%] | further results
1 | COc1ccc(N2CC(CN[C@H](C)c3cccc4ccccc34)Oc3ccccc32)cc1C(=O)O (mixture of isomers; form 2) | > 90 |  |  |  |  |  |  | 
2 | C[C@@H](NC[C@H]1C[C@@H](c2ccc(F)c(C(=O)O)c2)c2ccccc2O1)c1cccc2ccccc12 |  | 40 | 5 | 25 | 94 |  |  | 
3 | C[C@@H](NCC1CN(c2ccccn2)c2ccccc2O1)c1cccc2ccccc12 (some centres not stated) |  | 5 | 85 | 87 | 2 |  |  | 
4 | Cc1c(C(=O)O)cccc1[C@@H]1C[C@H](CN[C@H](C)c2cccc3ccccc23)Oc2ccccc21 |  | 52 | 7 | 25 | 47 |  |  | 
5 | COc1ccc([C@@H]2C[C@H](CN[C@H](C)c3cccc4ccccc34)Oc3ccccc32)cc1C(=O)O |  | 88 | 0 | 0 | 77 | -3 | -4 | 
6 | C[C@@H](NCC1CN(C(=O)c2ccccc2)c2ccccc2O1)c1cccc2ccccc12 (mixture of isomers; form 2) | 90 |  |  |  |  |  |  | 
7 | C[C@@H](NCC1CN(c2ccccc2)c2ccccc2O1)c1cccc2ccccc12 (mixture of isomers; form 2) | 114 |  |  |  |  |  |  | 
8 | C[C@@H](NC[C@H]1C[C@H](c2cccc(C(=O)O)c2)c2ccccc2O1)c1cccc2ccccc12 |  | 31 | 8 | 24 | 57 |  |  | 
9 | Cc1cc(C(=O)O)cc(N2CC(CN[C@H](C)c3cccc4ccccc34)Oc3ccccc32)c1 (mixture of isomers; form 2) | 169 |  |  |  |  |  |  | 
10 | C[C@@H](NCC1CN(c2cccc(C(=O)O)c2)c2ccccc2O1)c1cccc2ccccc12 (mixture of isomers; form 2) | 146 |  |  |  |  |  |  | 
11 | COc1ccc(N2CC(CN[C@H](C)c3cccc4ccccc34)Oc3ccccc32)cc1C(=O)O (mixture of isomers; form 1) | > 300 |  |  |  |  |  |  | 
12 | C[C@@H](NCC1CN(c2cccc(CC(=O)O)c2)c2ccccc2O1)c1cccc2ccccc12 (some centres not stated) | 104 |  |  |  |  |  |  | 
13 | C[C@@H](NCC1CN(c2cccc(OCC(=O)O)c2)c2ccccc2O1)c1cccc2ccccc12 (some centres not stated) | 36.4 | 87 | 6 | 36 | 45 | 43 | 66 | 
14 | Cc1ccc([C@@H]2C[C@@H](CN[C@H](C)c3cccc4ccccc34)Oc3ccccc32)cc1C(=O)O | 33.6 | 47 | 8 | 41 | 74 | 4 | -1 | 
15 | C[C@@H](NCC1CN(C)c2ccccc2O1)c1cccc2ccccc12 (some centres not stated) |  | 0 | 92 | 93 | 5 | 13 | 42 | 
16 | C[C@@H](NCC1CN(c2cccc(CCC(=O)O)c2)c2ccccc2O1)c1cccc2ccccc12.Cl (mixture of isomers) | 70.4 |  |  |  |  |  |  | EC50 ([1]; hek293): Not Active
17 | Cc1ccc(N2CC(CN[C@H](C)c3cccc4ccccc34)Oc3ccccc32)cc1C(=O)O (mixture of isomers) | 71.4 |  |  |  |  |  |  | 

Row | Structure (SMILES) | EC50 ([1]; read-out: EC50) [nM] | remaining at 0.5 h, 1 µM [2] [%] | inhibition at 1 µM (CYP2D6 [3]) [%] | inhibition at 10 µM (CYP2D6 [4]) [%] | remaining at 0.5 h, 1 µM [5] [%] | inhibition at 1 µM (hERG [6]) [%] | inhibition at 10 µM (hERG [7]) [%] | further results
18 | Cc1cc(C(=O)O)cc(N2CC(CN[C@H](C)c3cccc4ccccc34)Oc3ccccc32)c1 (mixture of isomers; form 1) | 84.1 |  |  |  |  |  |  | 
19 | C[C@@H](NCC1CNc2ccccc2O1)c1cccc2ccccc12 (some centres not stated) |  | 0 | 94 | 94 | 18 | 19 | 97 | 
20 | C[C@@H](NCC1CN(c2ccccc2C(=O)O)c2ccccc2O1)c1cccc2ccccc12.Cl (mixture of isomers) |  |  |  |  |  |  |  | EC50 ([1]; hek293): Not Active
21 | Cc1ccc([C@H]2C[C@H](CN[C@H](C)c3cccc4ccccc34)Oc3ccccc32)cc1C(=O)O | 58.5 |  |  |  |  |  |  | 
22 | Cc1cc(C(=O)O)cc([C@@H]2C[C@H](CN[C@H](C)c3cccc4ccccc34)Oc3ccccc32)c1 | 8.3 | 25 | 0 | 33 | 80 | 0 | 6 | 
23 | C[C@@H](NCC1CN(CC(F)(F)F)c2ccccc2O1)c1cccc2ccccc12 (some centres not stated) |  | 5 | 78 | 82 | 10 |  |  | 
24 | C[C@@H](NCC1CN(c2ccc(C(=O)O)cc2)c2ccccc2O1)c1cccc2ccccc12 (some centres not stated) | 64.9 | 28 | 65 | 65 | 34 | 5 | -43 | 
25 | Cc1c(C(=O)O)cccc1N1CC(CN[C@H](C)c2cccc3ccccc23)Oc2ccccc21.Cl (mixture of isomers; form 1) | 47.5 | 45 | 26 | 43 |  |  |  | inhibition (INH) [8]: -8%; inhibition (INH) [9]: -5%; Stability [5]: 40%
26 | Cc1ccc(C(=O)O)cc1[C@@H]1C[C@H](CN[C@H](C)c2cccc3ccccc23)Oc2ccccc21 |  | 52 | 7 | 36 | 80 | 5 | 2 | 
27 | Cc1c(C(=O)O)cccc1N1CC(CN[C@H](C)c2cccc3ccccc23)Oc2ccccc21.Cl (mixture of isomers; form 2) | 49.5 |  |  |  |  |  |  | inhibition (INH) [8]: -28%; inhibition (INH) [9]: -16%; Stability [5]: 10%
28 | C[C@@H](NCC1CN(c2cccc(C(=O)O)c2)c2ccccc2O1)c1cccc2ccccc12 (mixture of isomers; form 1) | 32.8 | 36 | 27 | 41 | 49 | -1 | -8 | 
29 | C[C@@H](NCC1CN(c2ccc(F)c(C(=O)O)c2)c2ccccc2O1)c1cccc2ccccc12 (mixture of isomers; form 1) |  | 61 |  |  | 6 | 5 | 21 | 
30 | C[C@@H](NCC1CN(c2ccccc2)c2ccccc2O1)c1cccc2ccccc12 (mixture of isomers; form 1) | 53.4 | 3 | 87 |  | 1 | 14 | 26 | 
31 | Cc1ccc(N2CC(CN[C@H](C)c3cccc4ccccc34)Oc3ccccc32)cc1C(=O)O (some centres not stated) |  |  |  |  |  |  |  | Activity (Rattus norvegicus): Dose-Dependent Effect
32 | Cc1ccc([C@H]2C[C@@H](CN[C@H](C)c3cccc4ccccc34)Oc3ccccc32)cc1C(=O)O | 3.7 | 62 | 7 | 32 | 74 | 9 | 1 | 
33 | C[C@@H](NCC1CN(C(=O)c2ccccc2)c2ccccc2O1)c1cccc2ccccc12 (mixture of isomers; form 1) | 21 | 0 | 7 | 72 | 3 | 16 | 52 | 
34 | C[C@@H](NC[C@H]1C[C@@H](c2cccc(C(=O)O)c2)c2ccccc2O1)c1cccc2ccccc12 |  | 31 | 17 | 35 | 42 |  |  | 
